Source: BindingDB's records for PubMed 11160626 (Japan Tobacco, 2001)
pKi: −log10 of the molar value.

Experiments:
Cannabinoid receptor 1 [1] = target: Cannabinoid receptor 1 (Rattus norvegicus, UniProt P20272)
Cannabinoid receptor 1 [2] = target: Cannabinoid receptor 1 (Mus musculus, UniProt P47746)
Cannabinoid receptor 2 [3] = target: Cannabinoid receptor 2 (Mus musculus, UniProt P47936)
Cannabinoid receptor 2 [4] = target: T1, Cannabinoid receptor 2 (Rattus norvegicus, UniProt Q9QZN9)
T1 sequence (Q9QZN9 whole entry): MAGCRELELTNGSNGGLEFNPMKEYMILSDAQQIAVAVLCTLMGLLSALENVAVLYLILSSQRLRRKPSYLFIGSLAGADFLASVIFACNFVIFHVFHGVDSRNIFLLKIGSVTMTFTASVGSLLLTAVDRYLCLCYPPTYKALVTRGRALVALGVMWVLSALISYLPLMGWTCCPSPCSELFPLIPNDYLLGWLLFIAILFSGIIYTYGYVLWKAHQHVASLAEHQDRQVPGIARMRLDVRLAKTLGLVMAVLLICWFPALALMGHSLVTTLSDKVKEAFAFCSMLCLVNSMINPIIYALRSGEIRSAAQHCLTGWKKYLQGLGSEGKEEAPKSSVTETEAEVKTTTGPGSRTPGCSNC

Chain of Cannabinoid receptor 2 (Mus musculus, UniProt P47936) (P47936 whole entry): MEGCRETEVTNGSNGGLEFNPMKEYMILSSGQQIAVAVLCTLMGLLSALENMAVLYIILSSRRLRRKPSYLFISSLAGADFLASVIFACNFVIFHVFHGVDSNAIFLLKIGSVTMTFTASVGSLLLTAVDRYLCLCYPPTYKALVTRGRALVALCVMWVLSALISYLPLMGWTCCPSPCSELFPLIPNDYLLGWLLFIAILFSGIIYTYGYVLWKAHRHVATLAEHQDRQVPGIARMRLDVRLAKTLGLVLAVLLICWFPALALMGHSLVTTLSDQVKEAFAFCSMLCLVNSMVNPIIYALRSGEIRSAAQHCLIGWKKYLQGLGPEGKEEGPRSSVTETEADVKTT
Chain of Cannabinoid receptor 1 (Rattus norvegicus, UniProt P20272) (P20272 whole entry): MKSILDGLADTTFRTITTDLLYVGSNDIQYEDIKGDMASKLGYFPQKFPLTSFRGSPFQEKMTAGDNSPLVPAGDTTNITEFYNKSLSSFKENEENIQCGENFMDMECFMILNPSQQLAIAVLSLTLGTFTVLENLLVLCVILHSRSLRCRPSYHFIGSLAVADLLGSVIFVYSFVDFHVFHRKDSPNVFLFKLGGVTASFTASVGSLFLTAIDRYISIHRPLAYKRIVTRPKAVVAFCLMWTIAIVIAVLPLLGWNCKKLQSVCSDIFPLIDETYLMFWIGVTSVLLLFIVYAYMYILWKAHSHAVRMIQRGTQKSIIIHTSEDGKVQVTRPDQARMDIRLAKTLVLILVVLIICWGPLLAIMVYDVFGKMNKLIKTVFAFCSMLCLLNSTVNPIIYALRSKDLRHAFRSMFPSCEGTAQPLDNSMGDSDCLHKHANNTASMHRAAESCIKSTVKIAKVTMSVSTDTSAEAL
Chain of Cannabinoid receptor 1 (Mus musculus, UniProt P47746) (P47746 whole entry): as the sequence (P20272 whole entry) above, with E95D counted along it

Row | Compound | pKi (Cannabinoid receptor 1 [1]) | pKi (Cannabinoid receptor 1 [2]) | pKi (Cannabinoid receptor 2 [3]) | pKi (Cannabinoid receptor 2 [4])
1 | CCCCCOc1c(OC)ccc2cc(C(=O)NCc3ccc4c(c3)OCO4)c(=O)[nH]c12 [N-(1,3-Benzodioxole-5-ylmethyl)-2-oxo-7-methoxy-8-pentoxy-1,2-dihydro-3-quinolinecarboxamide] | 5.98 | 5.97 | 8.81 | 9.42
2 | CCCCCc1cc(O)c2c(c1)OC(C)(C)[C@@H]1CCC(C)=CC21 (stereo partly specified) [Tetrahydrocannabinol] |  |  | 8.76 | 
3 | Cc1c(C(=O)c2cccc3ccccc23)c2cccc3c2n1[C@H](CN1CCOCC1)CO3 [WIN55212-2] |  |  | 9.25 | 
